Experimental data from PMC10023787, “Trio-pharmacophore DNA-encoded chemical library for simultaneous selection of fragments and linkers” (Nature Communications, 2023).

Molecular target: T1, bovine trypsin (Bos taurus, UniProt P00760)
T1 construct: purchased Sigma-Aldrich T8003
T1 sequence (P00760 24-246): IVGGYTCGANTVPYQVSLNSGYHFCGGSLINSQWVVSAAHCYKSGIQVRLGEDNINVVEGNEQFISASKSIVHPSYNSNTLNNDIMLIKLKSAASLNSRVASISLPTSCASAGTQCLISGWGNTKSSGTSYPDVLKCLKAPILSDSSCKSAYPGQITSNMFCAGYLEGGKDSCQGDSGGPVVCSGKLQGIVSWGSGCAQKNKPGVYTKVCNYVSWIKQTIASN
Test: Trypsin inhibition assay (proteolytic activity on BApNA)
Format: biochemical
Conditions: for improvement (of inhibitory effect): compared with 4-aminomethyl benzamidine; for IC50: mean ± SE, three independent measurements, n.d: not detected
Method: The inhibition by the benzamidine derivatives against trypsin was measured using an assay probing the enzyme proteolytic activity on the substrate Nα-Benzoyl-DL-arginine-4-nitroanilide hydrochloride (BApNA). […] 5 µl of BApNA solution (10 mM, dissolved in DMSO) were added immediately prior to the measurement. The final total volume was 100 µl per well. The measurements were performed in a Low Binding 384-well plate. The absorption was measured at 410 nm in intervals of 10 sec for 15 min at 37 °C using a Beckman Coulter’s Paradigm Detection Platform (Brea, USA). The measurements were performed in triplicate. The activity of trypsin was calculated by the hydrolysis rate of BApNA after subtraction of the background-hydrolysis rate. The curves were plotted as a function of the concentration of the inhibitor against the relative enzyme activity. Vmax was derived from the detected absorption signal for each concentration and logistic fitting was performed to obtain IC50 values using Origin 2019b (OriginLab).

[1] = Concentration 0.1024 nM, fraction of uninhibited activity, read-out: mean (Figure 3c, dose-response, relative trypsin activity)
[2] = Concentration 0.512 nM, fraction of uninhibited activity, read-out: mean (Figure 3c, dose-response, relative trypsin activity)
[3] = Concentration 2.56 nM, fraction of uninhibited activity, read-out: mean (Figure 3c, dose-response, relative trypsin activity)
[4] = Concentration 64 nM, fraction of uninhibited activity, read-out: mean (Figure 3c, dose-response, relative trypsin activity)
[5] = Concentration 320 nM, fraction of uninhibited activity, read-out: mean (Figure 3c, dose-response, relative trypsin activity)
[6] = Concentration 1600 nM, fraction of uninhibited activity, read-out: mean (Figure 3c, dose-response, relative trypsin activity)
[7] = Concentration 8000 nM, fraction of uninhibited activity, read-out: mean (Figure 3c, dose-response, relative trypsin activity)
[8] = Concentration 40000 nM, fraction of uninhibited activity, read-out: mean (Figure 3c, dose-response, relative trypsin activity)
[9] = Concentration 200000 nM, fraction of uninhibited activity, read-out: mean (Figure 3c, dose-response, relative trypsin activity)
[10] = Concentration 0.1024 nM, fraction of uninhibited activity
[11] = Concentration 0.512 nM, fraction of uninhibited activity
[12] = Concentration 2.56 nM, fraction of uninhibited activity
[13] = Concentration 64 nM, fraction of uninhibited activity
[14] = Concentration 320 nM, fraction of uninhibited activity
[15] = Concentration 1600 nM, fraction of uninhibited activity
[16] = Concentration 8000 nM, fraction of uninhibited activity
[17] = Concentration 40000 nM, fraction of uninhibited activity
[18] = Concentration 200000 nM, fraction of uninhibited activity
[19] = Concentration […], fraction of uninhibited activity

SMILES	remaining activity at 0.0001024 µM [1]	remaining activity at 0.000512 µM [2]	remaining activity at 0.00256 µM [3]	remaining activity at 0.064 µM [4]	remaining activity at 0.32 µM [5]	remaining activity at 1.6 µM [6]	remaining activity at 8 µM [7]	remaining activity at 40 µM [8]	remaining activity at 200 µM [9]	improvement (of inhibitory effect)	IC50	mean (Figure 3c, dose-response, relative trypsin activity) [10]	mean (Figure 3c, dose-response, relative trypsin activity) [11]	mean (Figure 3c, dose-response, relative trypsin activity) [12]	mean (Figure 3c, dose-response, relative trypsin activity) [13]	mean (Figure 3c, dose-response, relative trypsin activity) [14]	mean (Figure 3c, dose-response, relative trypsin activity) [15]	mean (Figure 3c, dose-response, relative trypsin activity) [16]	mean (Figure 3c, dose-response, relative trypsin activity) [17]	mean (Figure 3c, dose-response, relative trypsin activity) [18]	further results
N=C(N)c1ccc(CNC(=S)Nc2cccc(I)c2)cc1 [Compound T-0]	101%	110%	107%	110%	102%	97.5%	74%	23.7%	5.61%	approximately 9 fold	16.6 ± 3.1 µM	–	–	–	–	–	–	–	–	–	remaining activity at 1000 µM (Concentration 1000000 nM, fraction of uninhibited activity, read-out: mean (Figure 3c, dose-response, relative trypsin activity)): 1.19%
N=C(N)c1ccc(CNC(=O)CCCC(=O)NCCNC(=S)Nc2cccc(I)c2)cc1 [Compound T-1]	–	–	–	–	–	–	–	–	–	–	–	0.9598	1.038	1.032	1.057	1.07	0.9365	0.7184	0.2303	0.05821	mean (Figure 3c, dose-response, relative trypsin activity) (Concentration 830000 nM, fraction of uninhibited activity): 0.00834; mean (Figure 3c, dose-response, relative trypsin activity) [19]: 1.021
N=C(N)c1ccc(CNCc2ccc(C(=O)NCCNC(=S)Nc3cccc(I)c3)cc2)cc1 [Compound T-2]	105%	104%	106%	109%	97.3%	81.2%	37.4%	7.09%	1.08%	70 fold	5.2 ± 2.2 µM	–	–	–	–	–	–	–	–	–	remaining activity at 365 µM (Concentration 365000 nM, fraction of uninhibited activity, read-out: mean (Figure 3c, dose-response, relative trypsin activity)): 0.681%
N=C(N)c1ccc(CNC(=O)C2CCC(C(=O)NCCNC(=S)Nc3cccc(I)c3)CC2)cc1 (stereo not drawn) [Compound T-3]	93.7%	99.6%	98.7%	108%	90.1%	56.5%	18.3%	3.2%	0.69%	30 fold	2.1 ± 0.4 µM	–	–	–	–	–	–	–	–	–	remaining activity at 650 µM (Concentration 650000 nM, fraction of uninhibited activity, read-out: mean (Figure 3c, dose-response, relative trypsin activity)): 0%
N=C(N)c1ccc(CNC(=O)C2CCC(C(=O)NCCNC(=S)Nc3cccc(I)c3)CC2)cc1 (stereo not drawn) [Compound T-4]	–	–	–	–	–	–	–	–	–	–	–	0.916	1.0035	1.023	0.976	0.9546	0.8556	0.5625	0.1537	0.03111	mean (Figure 3c, dose-response, relative trypsin activity) (Concentration 440000 nM, fraction of uninhibited activity): 0.01768; mean (Figure 3c, dose-response, relative trypsin activity) [19]: 0.9246
N=C(N)c1ccc(CNC2CC(=O)N(CC3CCC(C(=O)NCCNC(=S)Nc4cccc(I)c4)CC3)C2=O)cc1 (stereo not drawn) [Compound T-5]	–	–	–	–	–	–	–	–	–	–	–	1.021	0.9691	0.9977	0.9529	0.962	0.9553	0.8147	0.4599	0.1722	mean (Figure 3c, dose-response, relative trypsin activity) (Concentration 650000 nM, fraction of uninhibited activity): 0.07286; mean (Figure 3c, dose-response, relative trypsin activity) [19]: 0.9721
